US20020182717A1, “Method of preparing supported lipid film membranes and use thereof” (Biacore AB, priority 2001, published 2002)

Molecular target: T1, rhodopsin (Bos taurus, UniProt P02699)
T1 construct: Gift: Dr. Andreas von Usedom, Institute for Medical Physics and Biophysics, Humboldt University, Berlin
Assay: Assay for rhodopsin functionality (transducin dissociation on illumination, SPR, BIACORE X)
Assay type: biochemical
Settings: 10 μM 9-cis-retinal, after extended illumination and over night incubation
Experimental: In order to judge if the rhodopsin has a native and functional conformation after immobilization and supplementation with lipids as described in steps A and B above, its signaling capacity was assayed. When rhodopsin is activated by light, it transmits its signal by activating transducin. Activated transducin dissociates from the membrane under consumption of GTP (Heyse, S., et al., Biochemistry (1998) 37:507-522).
Measurements of transducin dissociation by activated rhodopsin were performed in a BIACORE X instrument into which an optical fiber had been inserted for illumination of the flow cells. The instrument temperature was set to 20° C. All the operations were performed under safe red light. […]
This solution was injected at 5 μl/min over both the rhodopsin and the reference flow cells in the manual mode. Upon injection, transducin bound readily to both the rhodopsin-POPC surface and the POPC reference surface, but when the injection was finished it dissociated very rapidly from the surface into the mobile phase of running buffer. […] The activation of the receptor was recorded as a surface mass decrease caused by dissociation of the activated transducin from the membrane. […]

T1 sequence (P02699 whole entry): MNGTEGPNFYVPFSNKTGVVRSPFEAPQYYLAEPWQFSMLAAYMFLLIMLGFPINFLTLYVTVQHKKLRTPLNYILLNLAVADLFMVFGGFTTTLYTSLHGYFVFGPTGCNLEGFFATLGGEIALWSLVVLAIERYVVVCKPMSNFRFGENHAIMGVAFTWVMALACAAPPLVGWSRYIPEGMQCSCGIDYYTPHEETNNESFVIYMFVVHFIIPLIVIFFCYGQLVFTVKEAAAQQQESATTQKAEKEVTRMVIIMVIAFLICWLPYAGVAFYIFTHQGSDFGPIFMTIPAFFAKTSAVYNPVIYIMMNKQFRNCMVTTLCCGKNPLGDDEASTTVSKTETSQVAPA

**Q.** How did the “signalling capacity of exhausted reconstituted rhodopsin after ligand injection” value turn out when `CC1=C(/C=C/C(C)=C\C=C\C(C)=C\C=O)C(C)(C)CCC1` [9-cis-retinal] was run?
**A.** recovery of the signalling capacity
